Reference: PubChem BioAssay (NCI)
Where “and” joins values, the source holds several entries; their conditions need not be identical. Identical values can stand only once.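 Test compounds were applied to cells in 96-well plates for 48 hours at 5 doses. GI50 = concentration required for 50% inhibition of growth. TGI: concentration producing complete growth inhibition.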

Key:
Experiment in all cases: NCI tumour cell line growth inhibition, 48 h
786-0 renal = test system: 786-0 renal
A498 renal = test system: A498 renal
A549 NSCLC = test system: A549 NSCLC
ACHN renal = test system: ACHN renal
BT-549 breast = test system: BT-549 breast
CCRF-CEM leukemia = test system: CCRF-CEM leukemia
COLO 205 colon = test system: COLO 205 colon
DMS 114 small cell lung = test system: DMS 114 small cell lung
DU-145 prostate = test system: DU-145 prostate
EKVX NSCLC = test system: EKVX NSCLC
HCT-116 colon = test system: HCT-116 colon
HCT-15 colon = test system: HCT-15 colon
HOP-18 NSCLC = test system: HOP-18 NSCLC
HOP-62 NSCLC = test system: HOP-62 NSCLC
HOP-92 NSCLC = test system: HOP-92 NSCLC
HS 578T breast = test system: HS 578T breast
HT29 colon = test system: HT29 colon
IGROV1 ovarian = test system: IGROV1 ovarian
K-562 leukemia = test system: K-562 leukemia
KM12 colon = test system: KM12 colon
KM20L2 colon = test system: KM20L2 colon
LXFL 529 NSCLC = test system: LXFL 529 NSCLC
M14 melanoma = test system: M14 melanoma
MALME-3M melanoma = test system: MALME-3M melanoma
MCF7 breast = test system: MCF7 breast

For O=NN(CCCl)C(=O)NCCCl, the GI50 (786-0 renal) was 60 µM and 98.6 µM, the TGI (786-0 renal) was 141 µM and 113 µM and > 263 µM and the GI50 (A498 renal) was 178 µM. For the same compound, the TGI (A498 renal) was 250 µM and 221 µM, the GI50 (A549 NSCLC) was 210 µM and the TGI (A549 NSCLC) was 250 µM and 313 µM and > 379 µM. For the same compound, the GI50 (ACHN renal) was 64.4 µM, the TGI (ACHN renal) was 170 µM and 172 µM and the GI50 (BT-549 breast) was 47.3 µM and 251 µM. For the same compound, the TGI (BT-549 breast) was 92.8 µM and 148 µM and > 300 µM, the GI50 (CCRF-CEM leukemia) was 46 µM and 33.6 µM and the TGI (CCRF-CEM leukemia) was 142 µM and 97.8 µM and 65.6 µM. The GI50 (COLO 205 colon) was 47.2 µM and 202 µM, the TGI (COLO 205 colon) was 90.2 µM and 144 µM and > 286 µM and the TGI (DMS 114 small cell lung) was 142 µM. The GI50 (DU-145 prostate) was 95 µM and 296 µM, the TGI (DU-145 prostate) was 250 µM and 364 µM and > 377 µM and the GI50 (EKVX NSCLC) was 152 µM and > 268 µM. For the same compound, the TGI (EKVX NSCLC) was 250 µM and 225 µM and > 326 µM, the GI50 (HCT-116 colon) was 62.5 µM and 112 µM and the TGI (HCT-116 colon) was 155 µM and 156 µM and 256 µM. The GI50 (HCT-15 colon) was 52.7 µM and 121 µM, the TGI (HCT-15 colon) was 127 µM and 150 µM and > 267 µM and the TGI (HOP-18 NSCLC) was 160 µM. The GI50 (HOP-62 NSCLC) was 64.3 µM and 281 µM, the TGI (HOP-62 NSCLC) was 135 µM and 209 µM and > 389 µM and the GI50 (HOP-92 NSCLC) was 193 µM. The TGI (HOP-92 NSCLC) was 151 µM and > 262 µM, the GI50 (HS 578T breast) was 122 µM and 252 µM and the TGI (HS 578T breast) was 205 µM and 231 µM and > 317 µM. The GI50 (HT29 colon) was 56.4 µM and 209 µM, the TGI (HT29 colon) was 133 µM and 166 µM and > 361 µM and the GI50 (IGROV1 ovarian) was 55.9 µM and 196 µM. The TGI (IGROV1 ovarian) was 176 µM and 150 µM and > 374 µM, the TGI (K-562 leukemia) was 44.6 µM and 206 µM and 280 µM and the GI50 (KM12 colon) was greater than 500 µM. For the same compound, the TGI (KM12 colon) was 250 µM and 194 µM and > 500 µM, the TGI (KM20L2 colon) was 205 µM and the TGI (LXFL 529 NSCLC) was 141 µM. The GI50 (M14 melanoma) was 215 µM, the TGI (M14 melanoma) was 234 µM and 158 µM and > 308 µM and the GI50 (MALME-3M melanoma) was 55.9 µM and 216 µM. The TGI (MALME-3M melanoma) was 108 µM and 161 µM and > 294 µM, the GI50 (MCF7 breast) was 231 µM and the TGI (MCF7 breast) was 250 µM and 191 µM and > 312 µM.
